Data as given in PubChem BioAssay (NCI).
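Method: 48-hour compound exposure of cells in 96-well plates, five concentrations, linear interpolation of endpoints. The concentration for 50% growth inhibition is given as GI50. TGI marks complete inhibition of growth.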

Experiments:
Assay in all cases: growth of human tumour cells (NCI), 48 h
[1] = tested on: SF-268 CNS
[2] = tested on: HCT-116 colon
[3] = tested on: MALME-3M melanoma
[4] = tested on: 786-0 renal
[5] = tested on: OVCAR-3 ovarian
[6] = tested on: U251 CNS
[7] = tested on: MDA-N
[8] = tested on: PC-3 prostate
[9] = tested on: A549 NSCLC
[10] = tested on: RPMI-8226 leukemia
[11] = tested on: UO-31 renal

O=[N+]([O-])c1cc(F)ccc1Sc1ccccc1
TGI [1]: > 10 µM
TGI [2]: > 10 µM
TGI [3]: > 10 µM
TGI [4]: > 10 µM
TGI [5]: > 10 µM
TGI [6]: > 10 µM
TGI [7]: > 10 µM
TGI [8]: > 10 µM
TGI [9]: > 10 µM
TGI [10]: > 10 µM

C=C(C)[C@@H]1CC[C@]2(CO)CC[C@]3(C)[C@H](CC[C@@H]4[C@@](C)(CCCN)[C@H](C(=C)C)CC[C@]43C)[C@@H]12
GI50 [1]: 1.53 µM
TGI [1]: 3.06 µM
GI50 [11]: 1.31 µM
TGI [11]: 2.58 µM
GI50 [2]: 1.4 µM
TGI [2]: 3.02 µM
GI50 [5]: 1.59 µM
TGI [5]: 2.96 µM
GI50 [8]: 1.55 µM
TGI [8]: 3.09 µM
GI50 [9]: 1.73 µM
TGI [9]: 3.43 µM
GI50 [10]: 1.46 µM
TGI [10]: 3.99 µM

NC1c2c(Cl)sc(Cl)c2C(=O)C1O (stereo not drawn)
TGI [1]: > 100 µM
TGI [11]: > 100 µM
TGI [2]: > 100 µM
TGI [3]: 82.4 µM
TGI [4]: > 100 µM
TGI [5]: > 100 µM
TGI [6]: 60 µM
TGI [7]: > 100 µM
TGI [8]: > 100 µM
TGI [9]: > 100 µM

CC(=O)O[C@H]1CCC2[C@@H]3CCC4NC(=O)C(C#N)C[C@]4(C)C3CC[C@@]21C (stereo partly drawn)
TGI [1]: > 10 µM
TGI [11]: > 10 µM
TGI [2]: > 10 µM
TGI [3]: > 10 µM
TGI [4]: > 10 µM
TGI [5]: > 10 µM
TGI [6]: > 10 µM
TGI [7]: > 10 µM
TGI [8]: > 10 µM
TGI [9]: > 10 µM
TGI [10]: > 10 µM

Cc1c(C#N)c(=N)oc2ccccc12
TGI [1]: > 100 µM
TGI [11]: > 100 µM
TGI [2]: > 100 µM
TGI [3]: > 100 µM
TGI [4]: > 100 µM
TGI [5]: > 100 µM
TGI [6]: > 100 µM
TGI [7]: > 100 µM
TGI [8]: > 100 µM
TGI [9]: > 100 µM
TGI [10]: > 100 µM

C[PH+](c1nc2ccccc2nc1[PH+](C)C(C)(C)C)C(C)(C)C.C[PH+](c1nc2ccccc2nc1[PH+](C)C(C)(C)C)C(C)(C)C.[Au+].[Cl-] (stereo not drawn)
GI50 [1]: 0.0384 µM
TGI [1]: 1.35 µM
GI50 [2]: 0.0205 µM
TGI [2]: 0.0613 µM
GI50 [3]: 0.0263 µM
TGI [3]: 0.0811 µM
GI50 [8]: 0.0286 µM
TGI [8]: 0.144 µM
GI50 [10]: 0.0357 µM
TGI [10]: 0.245 µM

COC1(OC)C=CC(=O)C=C1
TGI [1]: 16.7 µM
TGI [11]: 4.22 µM
TGI [2]: 2.77 µM
TGI [4]: 4.55 µM
TGI [5]: 12.4 µM
TGI [6]: 4.9 µM
TGI [7]: > 36.8 µM
TGI [8]: 13.9 µM
TGI [9]: 21.3 µM
TGI [10]: 13.5 µM

COc1cc2oc(=O)cc(C)c2cc1OC
TGI [1]: > 100 µM
TGI [11]: > 100 µM
TGI [2]: > 100 µM
TGI [3]: > 100 µM
TGI [4]: > 100 µM
TGI [5]: > 100 µM
TGI [6]: > 100 µM
TGI [7]: > 100 µM
TGI [8]: > 100 µM
TGI [9]: > 100 µM
TGI [10]: > 100 µM

COC(=O)c1cc(C)ccc1/C=C1\Cc2c(C)cc(C)cc2C1=O
TGI [1]: 37.1 µM
TGI [11]: > 85.8 µM
TGI [2]: > 100 µM
TGI [3]: > 100 µM
TGI [4]: 40.6 µM
TGI [5]: > 100 µM
TGI [6]: 42.9 µM
TGI [7]: > 100 µM
TGI [8]: > 100 µM
TGI [9]: > 100 µM
TGI [10]: > 100 µM

COc1cc(S(=O)(=O)Nc2ccc(-c3csc(/N=C\c4ccccc4)n3)cc2)ccc1Cl
TGI [1]: > 100 µM
TGI [11]: > 100 µM
TGI [2]: > 100 µM
TGI [3]: > 100 µM
TGI [4]: > 100 µM
TGI [5]: > 100 µM
TGI [7]: > 100 µM
TGI [8]: > 100 µM
TGI [9]: > 100 µM
TGI [10]: > 100 µM
